# According to US20250340543A1, “GPR84 ANTAGONISTS AND USES THEREOF” (Liminal BioSciences Limited, priority 2021, published 2025):
# Biological target: GPR84 (Homo sapiens (Human), UniProt Q9NQS5)
# Assay: Gai biosensor BRET assay (GPR84-mediated activation of Gai, antagonist mode against agonist ZQ-16)
# Format: cell-based
# Conditions: HEK293 cells, 200 nmol/L GPR84 agonist ZQ-16, read-out: hGPR84 IC50
# How it was run: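 Transiently transfected HEK293 cells expressing GPR84, Gαi2-Rluc8, GFP10-Gγ2 and Gβ1, in Tyrode's buffer pH 7.5. Compounds pre-incubated 5 min at 37° C, then 200 nmol/L ZQ-16 for 5 min at room temperature; BRET² with coelenterazine 400A, ligand-promoted net BRET after background and vehicle subtraction.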
# Chain of GPR84 (Q9NQS5 whole entry): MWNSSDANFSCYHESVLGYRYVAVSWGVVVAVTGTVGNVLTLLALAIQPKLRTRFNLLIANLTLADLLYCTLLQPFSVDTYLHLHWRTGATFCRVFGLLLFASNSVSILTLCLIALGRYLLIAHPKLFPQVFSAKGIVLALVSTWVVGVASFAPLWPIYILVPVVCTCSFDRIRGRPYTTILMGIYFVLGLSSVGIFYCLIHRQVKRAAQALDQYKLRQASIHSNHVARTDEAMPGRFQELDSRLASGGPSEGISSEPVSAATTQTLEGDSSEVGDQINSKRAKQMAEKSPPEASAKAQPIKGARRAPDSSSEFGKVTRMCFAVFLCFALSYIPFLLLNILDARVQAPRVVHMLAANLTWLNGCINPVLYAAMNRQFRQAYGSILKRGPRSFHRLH
row,SMILES,IC50 [µM]
1,Cc1cc(OCc2ncccn2)cc(=O)n1C(C)c1ccc(C#CC2CC2)c(F)c1 (centres unmarked) [Compound I-273],< 5
2,O=c1nc(OCC2COCCO2)cc2n1CCOc1cc(C#CC3CC3)ccc1-2 (centres unmarked) [Compound I-214],< 5
3,COc1cc(OCC2CCOCC2)cc(-c2ccc(-c3ccc(C)nc3)cc2C)n1 [Compound I-3],< 5
4,Cc1cc(OCc2cnccc2Cl)cc(=O)n1[C@H](C)c1ccc(C#CC2CC2)cc1 [Compound I-315],< 5
5,Cc1cc(OCc2cncnc2)cc(=O)n1C(C)c1ccc(C#CC2CC2)c(F)c1 (centres unmarked) [Compound I-364],< 5
6,Cc1cc(OCc2nccn2C)cc(=O)n1C(C)c1ccc(C#CC2CC2)c(F)c1 (centres unmarked) [Compound I-361],< 5
7,Cc1cc(OCc2ncccn2)cc(=O)n1C(CC(F)(F)F)c1ccc(C#CC2CC2)cc1 (centres unmarked) [Compound I-324],< 5
8,Cc1cc(OCc2cncnc2)cc(=O)n1[C@H](C)c1ccc(C#CC2CC2)cc1 [Compound I-283],< 5
9,Cc1cc(OCc2ncccc2Cl)cc(=O)n1[C@H](C)c1ccc(C#CC2CC2)cc1 [Compound I-256],< 5
10,Cc1cc(OCc2ccncn2)cc(=O)n1[C@H](C)c1ccc(C#CC2CC2)cc1 [Compound I-258],< 5
11,Cc1cc(OCC2COCCO2)cc(=O)n1Cc1ccc(C#CC2CC2)cc1 (centres unmarked) [Compound I-35],< 5
12,Cc1cc(OCc2ccnn2C)cc(=O)n1[C@H](C)c1ccc(C#CC2CC2)cc1 [Compound I-351],< 5

# Same assay, conditions: compound tested at 2 μM (concentration code A)
row,SMILES,inhibition at 2 µM [%]
1,Cc1cc(OCc2cnccc2Cl)cc(=O)n1[C@H](C)c1ccc(C#CC2CC2)cc1 [Compound I-315],> 75
2,Cc1cc(OCc2nccn2C)cc(=O)n1C(C)c1ccc(C#CC2CC2)c(F)c1 (centres unmarked) [Compound I-361],> 75
3,Cc1c(C#CC2CC2)cccc1Cn1c(C)cc(OCc2ncccn2)cc1=O [Compound I-241],< 25
4,Cc1cc(OCc2cncnc2)cc(=O)n1[C@H](C)c1ccc(C#CC2CC2)cc1 [Compound I-283],> 75
5,Cc1cc(OCc2ncccc2Cl)cc(=O)n1[C@H](C)c1ccc(C#CC2CC2)cc1 [Compound I-256],> 75
6,Cc1cc(OCc2ccncn2)cc(=O)n1[C@H](C)c1ccc(C#CC2CC2)cc1 [Compound I-258],> 75
7,Cc1cc(OCc2cncs2)cc(=O)n1[C@H](C)c1ccc(C#CC2CC2)cc1 [Compound I-311],> 75

# Same assay, conditions: compound tested at 5 μM (concentration code C)
row,SMILES,inhibition at 5 µM [%]
1,COc1cc(OCC2COc3cccnc3O2)cc(-c2ccc(-c3ccc(C)nc3)cc2C)n1 (centres unmarked) [Compound I-64],< 25
2,COc1ccc2c(-c3ccc(C#CC4CC4)cc3)nnn2c1 [Compound I-215],< 25
3,COc1cc(OCC2COCCO2)cc(-c2ccc(OCC(F)(F)F)cc2)c1 (centres unmarked) [Compound I-166],< 25

# Same assay, conditions: compound tested at 10 μM (concentration code D)
row,SMILES,inhibition at 10 µM [%]
1,Cc1cc(OCC2COCCO2)cc(=O)n1Cc1cccc(OCC(F)(F)F)c1 (centres unmarked) [Compound I-114],< 25
2,Cc1cc(OCc2ncc[nH]2)cc(=O)n1[C@H](C)c1ccc(C#CC2CC2)cc1 [Compound I-355],25 to 50
3,Cc1cc(OCc2ncccn2)cc(=O)n1C(C)c1ccc(C#CC2CC2)s1 (centres unmarked) [Compound I-292],25 to 50
4,Cc1cc(OC[C@H]2COCCO2)cc(=O)n1Cc1ccc(N2CC(C)(C)C2)cc1 [Compound I-116],< 25
5,Cc1cc(OCc2ncccn2)cc(=O)n1C(C)c1ccc(C#CC2CC2)c(F)c1 (centres unmarked) [Compound I-273],> 75
6,Cc1cc(OC[C@H]2CCCCO2)cc(=O)n1[C@H](C)c1ccc(C#CC2CC2)cc1 [Compound I-145],> 75
7,Cc1cc(OCC2COCCO2)cc(=O)n1C(C)c1ccc(C#CCNc2ccccc2)cc1 (centres unmarked) [Compound I-117],< 25
8,Cc1c(C#CC2CC2)cccc1Cn1c(C)cc(OC[C@H]2COCCO2)cc1=O [Compound I-49],25 to 50
9,Cc1cc(OCC2COCCO2)cc(=O)n1Cc1cccc(N2CC(C)(C)C2)c1 (centres unmarked) [Compound I-146],< 25
10,Cc1cc(OCc2ncccn2)cc(=O)n1CCc1ccc(C#CC2CC2)cc1 [Compound I-238],> 75
11,CC#Cc1ccc([C@@H](C)n2c(C)cc(OCC3COCCO3)cc2=O)cc1 (some centres unmarked) [Compound I-219],50 to 75
12,Cc1cc(OCc2ncccn2)cc(=O)n1Cc1ccc(C#CC2CC2)cc1 [Compound I-237],50 to 75
13,Cc1cc(OCn2cccn2)cc(=O)n1[C@H](C)c1ccc(C#CC2CC2)cc1 [Compound I-295],> 75
14,Cc1cc(OCc2ncccn2)cc(=O)n1[C@H](C)Cc1ccc(C#CC2CC2)cc1 (stereo in doubt) [Compound I-276],> 75
15,Cc1cc(OCc2ncccn2)cc(=O)n1C(C)c1cnc(C#CC2CC2)nc1 (centres unmarked) [Compound I-340],< 25
16,Cc1cc(OCC2COCCO2)cc(=O)n1Cc1ccc(C#CCNCc2ccccc2)cc1 (centres unmarked) [Compound I-123],< 25
17,Cc1cc(N(C)Cc2ncccn2)cc(=O)n1[C@H](C)c1ccc(C#CC2CC2)cc1 [Compound I-372],> 75
18,Cc1cc(OCC2COCCO2)cc(=O)n1C(C)c1ccc(C#CC(C)(C)C)cc1 (centres unmarked) [Compound I-68],< 25

row,SMILES,inhibition at 10 µM [%]
1,Cc1cc(OC[C@@H]2COCCO2)cc(=O)n1[C@H](C)c1ccc(C#CC2CC2)cc1 [Compound I-6],> 75
2,Cc1cc(OCc2cncnc2)cc(=O)n1C(C)c1ccc(C#CC2CC2)c(F)c1 (centres unmarked) [Compound I-364],> 75
3,Cc1cc(OCc2ncccn2)cc(=O)n1[C@H](C)c1ccc(N2CC(C)(C)C2)cc1 [Compound I-235],< 25
4,Cc1cc(OCc2ncccn2)cc(=O)n1[C@H](C)c1ccc(C#CCNCc2ccccc2)cc1 [Compound I-263],< 25
5,Cc1cc(OCc2ncccn2)cc(=O)n1C(C)c1ccc(Oc2ccccc2)cc1 (centres unmarked) [Compound I-307],< 25
6,Cc1cc(OCc2cc(Cl)ccn2)cc(=O)n1[C@H](C)c1ccc(C#CC2CC2)cc1 [Compound I-306],25 to 50
7,Cc1cc(OCc2ncccn2)cc(=O)n1C(CC(F)(F)F)c1ccc(C#CC2CC2)cc1 (centres unmarked) [Compound I-324],> 75
8,Cc1cc(OCC2COCCO2)cc(=O)n1Cc1cc(C#CC2CC2)ccc1F (centres unmarked) [Compound I-143],< 25
9,Cc1cc(OC[C@@H]2COCCO2)cc(=O)n1C(C)c1ccc(C#CC2CC2)cn1 (some centres unmarked) [Compound I-246],< 25
10,Cc1cc(OCC2COCCO2)cc(=O)n1-c1ccc(C#CC2CC2)cc1 (centres unmarked) [Compound I-225],25 to 50
11,Cc1cc(OCC2COCCO2)cc(=O)n1Cc1cccc(C#CCNc2ccccc2)c1 (centres unmarked) [Compound I-14],< 25
12,Cc1cc(OCc2ccccn2)ccc1-c1cc(OCC2COCCO2)n(C)c(=O)c1 (centres unmarked) [Compound I-121],< 25
13,CCc1cc(OCC2COCCO2)cc(=O)n1C(C)c1ccc(C#CC2CC2)cc1 (centres unmarked) [Compound I-50],25 to 50
14,Cc1cc(OCc2ccn(C)n2)cc(=O)n1[C@H](C)c1ccc(C#CC2CC2)cc1 [Compound I-350],> 75
15,COCC#Cc1ccc([C@@H](C)n2c(C)cc(OCC3CCOCC3)cc2=O)cc1 (stereo in doubt) [Compound I-83],< 25
16,Cc1cc(OCc2ccccc2Cl)cc(=O)n1[C@H](C)c1ccc(C#CC2CC2)cc1 [Compound I-297],< 25
17,Cc1cc(OCc2ccnn2C)cc(=O)n1[C@H](C)c1ccc(C#CC2CC2)cc1 [Compound I-351],> 75
18,Cc1cc(OCC2COCCO2)cc(=O)n1C(C)c1cccc(C#CC2CC2)c1 (centres unmarked) [Compound I-88],< 25

# Same assay, conditions: compound tested at 15 μM (concentration code F)
row,SMILES,inhibition at 15 µM [%]
1,Cc1cc(OCC2COCCO2)nc(OCc2ccc(C#CC3CC3)cc2)n1 (centres unmarked) [Compound I-85],< 25

# Same assay, conditions: compound tested at 25 μM (concentration code G)
row,SMILES,inhibition at 25 µM [%]
1,O=c1nc(OCC2COCCO2)cc2n1CCOc1cc(C#CC3CC3)ccc1-2 (centres unmarked) [Compound I-214],> 75
2,COc1cc(OCC2COCCO2)cc(-c2ccc(OCC(F)(F)F)cc2)c1C (centres unmarked) [Compound I-157],< 25
3,O=c1nc(OCC2COCCO2)ccn1Cc1cc(OCC(F)(F)F)ccc1Br (centres unmarked) [Compound I-77],< 25
4,Cc1cc(OCC(F)(F)F)ccc1-c1cccc(OCC2COCCO2)n1 (centres unmarked) [Compound I-33],25 to 50
5,Cc1cc(OCC2COCCO2)cc(=O)n1Cc1cccc(OCc2ccccn2)c1 (centres unmarked) [Compound I-63],< 25
6,Clc1cc(OCC2COCCO2)cc(-c2ccc(C#CCNc3ccccc3)cc2)n1 (centres unmarked) [Compound I-109],< 25
7,O=c1cc(OCC2COCCO2)cc(-n2ccc(OCC(F)(F)F)cc2=O)[nH]1 (centres unmarked) [Compound I-5],< 25
8,COc1cc(OCC2COCCO2)cc(-c2cc(C#CCNc3ccccc3)ccc2C)n1 (centres unmarked) [Compound I-79],< 25
9,Cc1cc(OCc2ccccn2)ccc1-c1cc(OCC2COCCO2)cc(=O)[nH]1 (centres unmarked) [Compound I-71],< 25
10,Cn1c(-c2ccc(C#CC3CC3)cc2)nc(OCC2COCCO2)cc1=O (centres unmarked) [Compound I-27],25 to 50
11,C(#CC1CC1)c1ccc(-c2ccnc(OCC3CCCCO3)n2)cc1 (centres unmarked) [Compound I-128],< 25
12,Cn1c(OCC2COCCO2)cc(-c2ccc(C#CC3CC3)cc2)nc1=O (centres unmarked) [Compound I-136],< 25
13,CC(=O)N1CCN(c2cc(OCC3COCCO3)nc(=O)n2C)CC1 (centres unmarked) [Compound I-138],< 25
14,COc1cc(OC[C@H]2COCCO2)nc(-c2ccc(OCC(F)(F)F)cc2)c1C [Compound I-39],25 to 50
15,FC(F)(F)COc1ccc(-c2cc(OCC3COCCO3)cc(C(F)(F)F)c2)cc1 (centres unmarked) [Compound I-165],< 25
16,Cc1cc(OCC2COCCO2)cc(=O)n1Cc1ccc(C#CC2CC2)cc1 (centres unmarked) [Compound I-35],25 to 50
17,CCc1cc(OCC2COCCO2)cc(OCc2ccc(C#CC3CC3)cc2)n1 (centres unmarked) [Compound I-72],< 25
18,O=c1oc2ccc(-c3ccc(C#CC4CC4)cc3)cc2n1CC1CCCCO1 (centres unmarked) [Compound I-167],< 25
